Source: patent US6476019B1, “Spirocyclic ligands for sigma receptors, and libraries and methods of use thereof” (Sepracor Inc., priority 1999, dated 2002)
pIC50: −log10 of the molar value. Where two headings read alike, the source gives them in different places.

Assays:
[1] = biological target: T1, sigma-1 receptor (guinea pig brain) (Cavia porcellus, UniProt Q60492); experiment: Antagonism of haloperidol binding to guinea pig sigma-1 receptors; conditions: sigma-1, guinea pig brain; for % Inhibition: test concentration not given
T1 construct: from tissue; host or cells: guinea pig brain
T1 sequence (Q60492 whole entry): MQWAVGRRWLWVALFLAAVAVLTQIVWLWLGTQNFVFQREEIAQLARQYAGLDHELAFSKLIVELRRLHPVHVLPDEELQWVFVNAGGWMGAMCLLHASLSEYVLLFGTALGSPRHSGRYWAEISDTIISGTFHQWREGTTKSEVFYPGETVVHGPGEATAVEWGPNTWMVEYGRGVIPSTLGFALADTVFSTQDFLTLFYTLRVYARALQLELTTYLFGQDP

human sigma receptor = human sigma receptor (Homo sapiens, UniProt Q99720); experiment: Human sigma receptor assay; assay type: binding
Chain of human sigma receptor (Q99720 whole entry): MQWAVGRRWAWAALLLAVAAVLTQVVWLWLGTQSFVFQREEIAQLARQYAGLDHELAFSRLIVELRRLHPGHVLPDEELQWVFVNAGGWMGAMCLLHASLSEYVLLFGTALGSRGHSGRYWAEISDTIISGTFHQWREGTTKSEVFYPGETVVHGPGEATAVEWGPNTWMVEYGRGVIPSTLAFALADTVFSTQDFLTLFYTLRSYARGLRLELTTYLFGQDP
Description: (§1) The ability of test compounds to displace sigma ligands in vitro was determined by the methods of de Costa et al. (FEBS Lett. 251:53 (1989)) and De Haven-Hudkine et al. (Eur. J. Pharmacol. 227:372 (1992)) having guinea pig as a receptor source. Whereas, the methods of Gamapatju et al. (J. Pharm.&Exp. 289:251 (1999)) were utilized for human sigma receptors.

[2] = biological target: T2, guinea pig sigma receptor (Cavia porcellus, UniProt Q60492); experiment: Guinea pig sigma receptor assay; assay type: binding
T2 construct: having guinea pig as a receptor source; from tissue; host or cells: guinea pig
T2 sequence (Q60492 whole entry): as the sequence (Q60492 whole entry) above
Description: as §1

Male Wistar rats = experiment: MK-801-Induced Psychosis Model; assay type: in vivo, rat; conditions: rat, 0.25 mg/kg i.p.; MK-801 0.3 mg/kg i.p.
Text: The non-competitive NMDA receptor antagonist MK-801 induces stereotypies and hyperactivity in rodents (1) by interacting with the NMDA receptor-associated ion channel. Phencyclidine, which also interferes with the NMDA receptor, produces psychotic effects in humans similar in many respects to schizophrenia. […] Therefore the MK-801-induced activity and stereotypies in rats may represent an appropriate animal model to test the potential efficacy of antipsychotic drugs.
Male Wistar rats (Iffa Crédo, St Germain/l'Arbresle, France), weight 250-300 g were housed 2 per cage on a 12 h/12 h light dark cycle (lights on at 7.00 a.m.) at a room temperature of 21±2° C. for a minimum of 5 days before testing. All animals had access to commercial food and tap water ad libitum.
On the day of the experiment, rats were treated with either reference drug vehicle, the reference drugs haloperidol or clozapine the test compound vehicle or test compounds. After administration, the rats were returned to their home cages for 15 minutes. […] The remaining rats treated with placebo received a second injection of vehicle. The standard injection volume was 2.0 ml/kg. After 10 minutes in the home cages, rats were transferred to the test box (Plexiglas, 29×12×12 cm), 5 minutes before the assessment for accomodation. The test box was cleaned with 70% ethanol before each assessment. Stereotypies, defined as wall-contacts with the snout, and locomotion, defined as turn-rounds of 180°, were assessed during 5 minute periods.

[3] = read-out: IC50 Against Human Sigma Receptor
[4] = read-out: IC50 Against Guinea Pig Sigma Receptor

| Molecule | pIC50 [1] | % Inhibition [1] | further results |
| --- | --- | --- | --- |
| O=C1CCC2(CCN(S(=O)(=O)c3ccccc3)CC2)Nc2ccccc21 [Compound 17, 1′-(Benzenesulfonyl)-3,4-dihydrospiro[5H-1-benzazepine-2(1H)-4′-piperidin]-5-one] | < 6.00 | <50% | – |
| O=C1CCC2(CCN(CCC3CCCCC3)CC2)Nc2ccccc21 [Compound 25] | – | >50% | – |
| O=C1CCC2(CCN(Cc3ccc(OC(F)(F)F)cc3)CC2)Nc2ccccc21 [Compound 18, 1′-(4-Trifluoromethoxybenzyl)-3,4-dihydrospiro[5H-1-benzazepine-2(1H), 4′-piperidin]-5-one] | – | >50% | – |
| CC(C)CCN1CCC2(CCC(=O)c3ccccc3N2)CC1 [Compound 29, 1′-(3-methylbutane)-3,4-dihydrospiro[5H-1-benzazepine-2(1H)-4′-piperidin]-5-one] | > 7.00 | >50% | – |
| Fc1ccc(CN2CCC3(CCCc4ccccc4N3)CC2)cc1 [Compound 43] | – | – | pIC50 (human sigma receptor; [3]): > 6.00 |
| CC(c1ccc(F)cc1)N1CCC2(CCC(=O)c3ccccc3N2)CC1 (stereo not shown) [Compound 46, 1′-(1-Methyl-4-fluorobenzyl)-3,4-dihydrospiro[5H-1-benzazepine-2(1H)-4′-piperidin]-5-one] | – | – | pIC50 (human sigma receptor; [3]): > 7.00; pIC50 [2, 4]: > 8.00 |
| C=C(C)CCN1CCC2(CCC(=O)c3ccccc3N2)CC1 [Compound 23, 1′-(3-methyl-3-butene)-3,4-dihydrospiro[5H-1-benzazepine-2(1H)-4′-piperidin]-5-one] | – | >50% | – |
| CC(C)(C)c1ccc(C(=O)N2CCC3(CCC(=O)c4ccccc4N3)CC2)cc1 [Compound 14, 1′-(4-tert-Butylbenzoyl)-3,4-dihydrospiro[5H-1-benzazepine-2(1H)-4′-piperidin]-5-one] | < 6.00 | <50% | – |
| COC(=O)c1ccc(CN2CCC3(CCC(=O)c4ccccc4N3)CC2)cc1 [Compound 22, 1′-(Methyl-(4-methylbenzoate))-3,4-dihydrospiro[5H-1-benzazepine-2(1H), 4′-piperidin]-5-one] | > 6.00 | >50% | – |
| O=C1CCC2(CCN(C(=O)c3ccc(Cl)c(Cl)c3)CC2)Nc2ccccc21 [Compound 12, 1′-(3,4-Dichlorobenzoyl)-3,4-dihydrospiro[5H-1-benzazepine-2(1H)-4′-piperidin]-5-one] | < 6.00 | <50% | – |
| CC(C)(C)CCN1CCC2(CCC(=O)c3ccccc3N2)CC1 [Compound 27, 1′-(3,3-dimethylbutane)-3,4-dihydrospiro[5H-1-benzazepine-2(1H)-4′-piperidin]-5-one] | – | >50% | – |
| O=C(CCCN1CCC(O)(c2ccc(Cl)cc2)CC1)c1ccc(F)cc1 [haloperidol, reference compound] | – | – | MK-801-induced locomotion (Male Wistar rats): significant reduction; MK-801-induced stereotypies (Male Wistar rats): significant reduction |
| C=CCN1CCC2(CCC(=O)c3ccccc3N2)CC1 [Compound 26, 1′-(allyl)-3,4-dihydrospiro[5H-1-benzazepine-2(1H)-4′-piperidin]-5-one] | – | >50% | – |
| O=C1C=CC2(CCN(Cc3ccc(F)cc3)CC2)Nc2ccccc21 [Compound 34, 1′-(4-Fluorobenzyl)-spiro[5-1-benzazepine-2(1H)-4′-piperidin]-5-one] | > 7.00 | >50% | pIC50 [2, 4]: > 7.00 |
| O=C1CCC2(CCN(C(=O)c3ccc4ccccc4c3)CC2)Nc2ccccc21 [Compound 16, 1′-(2-Naphthoyl)-3,4-dihydrospiro[5H-1-benzazepine-2(1H)-4′-piperidin]-5-one] | < 6.00 | <50% | – |
| CCN(CC)C(=O)N1CCC2(CCC(=O)c3ccccc3N2)CC1 [Compound 15, 1′-(Diethylcarbamyl)-3,4-dihydrospiro[5H-1-benzazepine-2(1H)-4′-piperidin]-5-one] | < 6.00 | <50% | – |
| O=C1CCC2(CCN(CC(O)c3ccccc3)CC2)Nc2ccccc21 (stereo not shown) [Compound 45, 1′-(2-hydroxy-phenethyl)-3,4-dihydrospiro[5H-1-benzazepine-2(1H)-4′-piperidin]-5-one] | – | – | pIC50 (human sigma receptor; [3]): > 7.00; pIC50 [2, 4]: > 8.00 |
| N#Cc1ccc(CN2CCC3(CCC(=O)c4ccccc4N3)CC2)cc1 [Compound 24, 1′-(4-cyanobenzyl)-3,4-dihydrospiro[5H-1-benzazepine-2(1H), 4′-piperidin]-5-one] | – | >50% | – |
| CC(=O)NC1CCC2(CCN(Cc3ccc(F)cc3)CC2)Nc2ccccc21 (racemic) [Compound 39] | – | – | pIC50 (human sigma receptor; [3]): > 6.00; pIC50 [2, 4]: > 8.00 |
| O=C1CCC2(CCN(C(=O)N3CCOCC3)CC2)Nc2ccccc21 [Compound 13, 1′-(4-morpholinecarbonyl)-3,4-dihydrospiro[5H-1-benzazepine-2(1H)-4′-piperidin]-5-one] | < 6.00 | <50% | – |
| O=C1CCC2(CCN(Cc3ncc[nH]3)CC2)Nc2ccccc21 [Compound 30, 1′-(2-methyl-imidazole)-3,4-dihydrospiro[5H-1-benzazepine-2(1H)-4′-piperidin]-5-one] | > 6.00 | >50% | – |
| C=C1c2ccccc2NC12CCN(Cc1ccc(F)cc1)CC2 [Compound 53, 1-Fluorobenzyl-spiro[(3-methylene)-indole-2,4′-piperidine]] | – | – | pIC50 (human sigma receptor): < 6.00; pIC50 [2]: > 7.00 |
| CC(=O)N1CCC2(CCC(=O)c3ccccc3N2)CC1 [Compound 10, 1′-Acetyl-3,4-dihydrospiro[5H-1-benzazepine-2(1H), 4′-piperidin]-5-one] | – | >50% | – |
| 1′-(iso-nicotinyl)-3,4-dihydrospiro[5H-1-benzazepine-2(1H)-4′-piperidin]-5-one [Compound 20] | < 6.00 | <50% | – |
| O=C1CCC2(CCN(CC3CO3)CC2)Nc2ccccc21 (stereo not shown) [Compound 28, 1′-(epoxymethyl)-3,4-dihydrospiro[5H-1-benzazepine-2(1H)-4′-piperidin]-5-one] | – | >50% | – |
| NC1CCC2(CCN(Cc3ccc(F)cc3)CC2)Nc2ccccc21 (racemic) [Compound 36, 1′-(4-fluorobenzyl)-3,4-dihydrospiro[5H-1-benzazepine-2(1H)-4′-piperidin]-5-amine] | – | – | pIC50 (human sigma receptor; [3]): > 7.00 |
